Entries after “also recorded” stand apart in the source; their conditions may differ. One block for each compound: values may come before it. *1 amine or outer side, *2 acyl side, *3 side chain or, on linkers, in order; H or OH if unused. Where a SMILES comes first, the peptide text is derived from it. Bridges are numbered along the chain shown (N, C = ends). Primed or numbered codes have the meaning given here. Where no end group is shown, it is not given here. [ ]: non-standard residue; d: D form. The star is where a group is joined. Tam = 6-carboxy tetramethylrhodamine, CN(C)c1ccc2c(-c3cc(C(=O)*)ccc3C(=O)[O-])c3ccc(N(C)C)cc3[o+]c2c1; X1 = CN(C)c1ccc2c(c1)Oc1cc(N(C)C)ccc1C21OC(=O)c2ccc(C(=O)*)cc21; EG(4) = polyethylene glycol with four ethylene glycol units; PEG4 = NCCOCCOCCOCCOCCC(=O)O; d(hCys) = N[C@H](CCS)C(=O)O; hCys = N[C@@H](CCS)C(=O)O; CH2 = C([*:1])[*:2]
Assays:
[1] = target: T1, hCMKLR1 (Homo sapiens, UniProt Q99788); assay: Calcium flux assay in COS-7 cells transfected with hCMKLR1_eYFP_GαΔ6qi4myr
T1 sequence (Q99788 1-373): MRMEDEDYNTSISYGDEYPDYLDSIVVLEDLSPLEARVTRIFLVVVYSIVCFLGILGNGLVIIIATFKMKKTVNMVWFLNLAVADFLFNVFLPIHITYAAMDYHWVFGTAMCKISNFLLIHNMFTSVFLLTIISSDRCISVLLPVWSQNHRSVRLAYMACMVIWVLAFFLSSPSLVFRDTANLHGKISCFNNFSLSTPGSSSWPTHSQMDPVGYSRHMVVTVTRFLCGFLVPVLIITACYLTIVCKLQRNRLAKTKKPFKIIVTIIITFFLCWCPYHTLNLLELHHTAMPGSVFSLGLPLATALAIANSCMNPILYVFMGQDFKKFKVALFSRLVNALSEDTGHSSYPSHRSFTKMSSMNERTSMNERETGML
Description: COS-7 cells were transfected in 75 cm^2 cell culture flasks with 12 µg of the hCMKLR1_eYFP_GαΔ6qi4myr_pV2 plasmid overnight using Metafectene Pro. Transfected cells were seeded in 96 well plates (100 µL cell suspension in DMEM + 10%FBS/well) and incubated overnight. […] All experiments were performed in triplicates, each experiment was repeated at least twice. Nonlinear regression was calculated using GraphPad Prism 5.

[2] = test system: HEK293 cells stably transfected with CMKLR1-eYFP; assay: Quantification of peptide uptake using a High Content Imager; assay type: cell-based; conditions: 1 µM Tam-labeled peptide, up to 1 h
Description: Cells were stimulated with 1 µM of the respective, Tam-labeled peptide for the specified periods, followed by washing with acidic wash (50 mM glycine, 100 mM NaCl, pH 3) in HBSS. Microscopy was carried out in OptiMEM using an ImageXpress Micro Confocal High-Content Imaging System (Molecular Devices, San José, CA, USA), using the appropriate filters for the respective fluorophores (Table 1). The fluorescence intensity per cell was automatically analyzed for each well by a module detecting the nuclei (5–30 µm in diameter and 100 gray levels above background) and the granules by Tam-peptide fluorescence (2–5 µm in diameter, 70 gray levels above background).

[3] = Investigation of plasma stability (Tam-labeled peptides, RP-HPLC); assay type: in vitro ADME; conditions: Tam-modified peptides, 10^−5 M in human blood plasma, 37 °C; one-phase decay
Description: Investigation of peptide stability in blood plasma was carried out as described previously [22]. Tam-labeled peptides were dissolved in human blood plasma at a concentration of 10^−5 M and incubated at 37 °C and 250 rpm. Samples taken at the respective time points were added to a solution of 0.1% SDS in ACN/EtOH (1:1). After incubation at −20 °C for 20 min, the supernatant was transferred to a new tube and incubated again at −20 °C for at least 3 h. […] Peaks were integrated, and the peak containing the intact peptide was normalized to the sample taken at t = 0 min (100%). Plasma half-life was determined using one-phase decay in Prism 5 (GraphPad, San Diego, CA, USA).

[4] = human blood plasma; conditions: 37 °C, up to 24 h
[5] = test system: HEK293 cells stably transfected with CMKLR1-eYFP; assay: Resazurin-based cell viability assay, HEK293-CMKLR1; conditions: HEK293-CMKLR1
Description: (§1) HEK293 cells stably transfected with CMKLR1-eYFP, empty HEK293 cells (15,000 cells in 100 µL suspension/well), or HMEC-1 cells (5000 cells in 100 µL suspension/well) in their respective cell culture media were seeded in 96 well plates (coated with poly D-lysine for HEK cells) and incubated at standard conditions overnight. Afterward, cells were incubated with peptides or MTX dissolved in cell culture media, and a medium without peptides was used as a control. […] Ethanol or media was removed and a 50 µL resazurin-based in vitro toxicology assay kit (Sigma-Aldrich, St. Lous, MO, USA) in cell culture media (1:10) was added to each well. After 1 h incubation time, the conversion of the resazurin was detected by measuring the fluorescence intensity at λem = 590 nm. All experiments were performed in duplicates and each experiment was repeated at least three times. Nonlinear regression was calculated using GraphPad Prism 5, curves were normalized to untreated and ethanol-treated cells.

[6] = test system: untransfected HEK293 cells; assay: Resazurin-based cell viability assay, untransfected HEK293; conditions: HEK293 cells devoid of CMKLR1, 72 h
Description: as §1

[7] = target: chemokine-like receptor 1 fused to eYFP (hCMKLR1-eYFP) (human) (UniProt Q99788)
[8] = target: chemokine-like receptor 1 fused to eYFP (hCMKLR1-eYFP) (human) (UniProt Q99788); remark: listed apart in the source
[9] = test system: HEK293 cells transiently transfected with CMKLR1-eYFP; assay: Live cell fluorescence microscopy of peptide uptake; assay type: cell-based; conditions: 1 µM Tam-labeled peptide, 60 min
Description: For fluorescence microscopy, HEK293 cells were seeded into Ibidi 15 µ-slides (140,000 cells/200 µL/well) coated with poly D-lysine and grown overnight. Next, cells were transfected with 900 ng CMKLR1-eYFP. Transfection was achieved using Lipofectamine 2000 according to the manufacturer’s protocol. One day post-transfection, fluorescence microscopy experiments were performed on an AxioVision Observer.Z1 microscope equipped with an ApoTome imaging system (Zeiss, Jena, Germany). […] To observe peptide uptake, cells were stimulated with 1 µM Tam-chemerin-9 in OptiMEM, which was replaced with acidic wash (50 mM glycine, 100 mM NaCl, pH 3) in HBSS after the indicated time, followed by two washing steps with OptiMEM. Microscopy was carried out in OptiMEM.

[10] = EC50, Ca^2+ flux, normalized to chemerin-9 curve

Compound: Tam-EG(4)-YFPGQFAAS ({Tam-EG(4)}-YFPGQFAAS) [Compound 13T, alanine-substituted Tam-labeled linear peptide, negative control]
intracellular accumulation of Tam-fluorescence over time [2]: did not accumulate in the cells

Compound: CN(C)c1ccc2c(c1)Oc1cc(N(C)C)ccc1C21OC(=O)c2ccc(C(=O)NCCCC[C@@H]3NC(=O)[C@H](Cc4ccccc4)NC(=O)[C@H](CCC(N)=O)NC(=O)[C@H](NC(=O)[C@@H]4CCCN4C(=O)[C@H](Cc4ccccc4)NC(=O)[C@@H](N)Cc4ccc(O)cc4)CSSC[C@@H](C(=O)O)NC(=O)[C@H](Cc4ccccc4)NC3=O)cc21 [Compound 7T, YFP(cQFK(Tam)FC)] (H-YFP[dC]QFK(X1)FC-OH; disulfide 4-9)
half-life [3]: < 0.2 h

Compound: yFP(cQFK(Tam)FC)
not cleaved [4]: fully stable in blood plasma for 24 h; t1/2 >24 h

Compound: CN(C)c1ccc2c(c1)Oc1cc(N(C)C)ccc1C21OC(=O)c2ccc(C(=O)NCCCC[C@@H]3NC(=O)[C@H](Cc4ccccc4)NC(=O)[C@H](CCC(N)=O)NC(=O)[C@H](NC(=O)[C@@H]4CCCN4C(=O)[C@H](Cc4ccccc4)NC(=O)[C@H](N)Cc4ccc(O)cc4)CSSC[C@@H](C(=O)O)NC(=O)[C@H](Cc4ccccc4)NC3=O)cc21 [Compound 8T, yFP(cQFK(Tam)FC)] (H-[dY]FP[dC]QFK(X1)FC-OH; disulfide 4-9)
half-life [3]: > 24 h

Compound: Mtx-GFLGK(Ac)YFP(xQFAFC) [Compound 15]
increase in toxicity compared to MTX itself [5]: almost eightfold increase in toxicity
toxicity (in words) [6]: exerted no toxicity; also recorded: not toxic at concentrations up to 10 µM

Compound: C[C@@H]1NC(=O)[C@H](Cc2ccccc2)NC(=O)[C@H](CCC(N)=O)NC(=O)[C@H](NC(=O)[C@@H]2CCCN2C(=O)[C@H](Cc2ccccc2)NC(=O)[C@H](N)Cc2ccc(O)cc2)CSCSCC[C@@H](C(=O)O)NC(=O)[C@H](Cc2ccccc2)NC1=O [Compound 10, yFP(c(CH2)QFAFX)] (H-[dY]FP[dC]QFAF[hCys]-OH; linker 4-9 via CH2)
EC50 [1, 10]: 28 nM
EC50 ([1]; pEC50 ± SEM, Ca^2+ flux): 28 nM

Compound: C[C@@H]1NC(=O)[C@H](Cc2ccccc2)NC(=O)[C@H](CCC(N)=O)NC(=O)[C@H](NC(=O)[C@@H]2CCCN2C(=O)[C@H](Cc2ccccc2)NC(=O)[C@@H](N)Cc2ccc(O)cc2)CSCSC[C@@H](C(=O)O)NC(=O)[C@H](Cc2ccccc2)NC1=O [Compound 5, YFP(c(CH2)QFAFC)] (H-YFP[dC]QFAFC-OH; linker 4-9 via CH2)
EC50 [1, 10]: 13 nM
EC50 ([1]; pEC50 ± SEM, Ca^2+ flux): 12.9 nM

Compound: Tam-EG(4)-YFP(xQFAFC)
not cleaved [4]: not degraded in blood plasma for at least 24 h; t1/2 >48 h

Compound: C[C@@H]1NC(=O)[C@H](Cc2ccccc2)NC(=O)[C@H](CCC(N)=O)NC(=O)[C@H](NC(=O)[C@@H]2CCCN2C(=O)[C@H](Cc2ccccc2)NC(=O)[C@H](Cc2ccc(O)cc2)NC(=O)c2ccc3c(c2)C2(OC3=O)c3ccc(N(C)C)cc3Oc3cc(N(C)C)ccc32)CSCSCC[C@@H](C(=O)O)NC(=O)[C@H](Cc2ccccc2)NC1=O [Compound 6T, Tam-YFP(c(CH2)QFAFX)] (X1-YFP[dC]QFAF[hCys]-OH; linker 4-9 via CH2)
half-life [3]: > 24 h

Compound: Tam-YFP(c(CH2)QFAFX)
not cleaved [4]: same stability for 24 h; t1/2 >24 h

Compound: methotrexate conjugate 15, Mtx-GFLGK(Ac)YFP(xQFAFC) (peptide)
toxicity in a resazurin-based cell viability assay, HEK293 cells stably transfected with CMKLR1-eYFP, 72 h, IC50 (no toxicity on HEK293 cells devoid of CMKLR1 up to 10 µM) [7]: 61 nM
toxicity in a resazurin-based cell viability assay, HMEC-1 cells endogenously expressing CMKLR1, 72 h, IC50 [8]: 2000 nM

Compound: C[C@@H]1NC(=O)[C@H](Cc2ccccc2)NC(=O)[C@H](CCC(N)=O)NC(=O)[C@H](NC(=O)[C@@H]2CCCN2C(=O)[C@H](Cc2ccccc2)NC(=O)[C@H](Cc2ccc(O)cc2)NC(=O)c2ccc3c(c2)C2(OC3=O)c3ccc(N(C)C)cc3Oc3cc(N(C)C)ccc32)CSSC[C@@H](C(=O)O)NC(=O)[C@H](Cc2ccccc2)NC1=O [Compound 4T, Tam-YFP(cQFAFC)] (X1-YFP[dC]QFAFC-OH; disulfide 4-9)
half-life [3]: > 24 h

Compound: Tam-YFP(cQFAFC) (X1-YFP[dC]QFAFC-OH; disulfide 4-9)
not cleaved [4]: remained completely intact for the course of the experiment (24 h); t1/2 >24 h

Compound: C[C@@H]1NC(=O)[C@H](Cc2ccccc2)NC(=O)[C@H](CCC(N)=O)NC(=O)[C@H](NC(=O)[C@@H]2CCCN2C(=O)[C@H](Cc2ccccc2)NC(=O)[C@H](Cc2ccc(O)cc2)NC(=O)CCOCCOCCOCCOCCNC(=O)c2ccc3c(c2)C2(OC3=O)c3ccc(N(C)C)cc3Oc3cc(N(C)C)ccc32)CCSSC[C@@H](C(=O)O)NC(=O)[C@H](Cc2ccccc2)NC1=O [Compound 12T, Tam-EG(4)-YFP(xQFAFC)] ({X1-PEG4}-YFP[d(hCys)]QFAFC-OH; disulfide 4-9)
half-life [3]: > 48 h
intracellular Tam-fluorescence (peptide uptake) [9]: pronounced intracellular fluorescence is visible after 60 min of stimulation
intracellular accumulation of Tam-fluorescence over time [2]: comparable intracellular accumulation over time

Results, then the compound that gave them:

EC50 ([1]; pEC50 ± SEM, Ca^2+ flux): 64.3 nM
Compound: C[C@@H]1NC(=O)[C@H](Cc2ccccc2)NC(=O)[C@H](CCC(N)=O)NC(=O)[C@H](NC(=O)[C@@H]2CCCN2C(=O)[C@H](Cc2ccccc2)NC(=O)[C@@H](N)Cc2ccc(O)cc2)CSSC[C@@H](C(=O)O)NC(=O)[C@H](Cc2ccccc2)NC1=O [Compound 4, YFP(cQFAFC)] (H-YFP[dC]QFAFC-OH; disulfide 4-9)

half-life [3]: 0.75 h
Compound: CN(C)c1ccc2c(c1)Oc1cc(N(C)C)ccc1C21OC(=O)c2ccc(C(=O)N[C@@H](Cc3ccc(O)cc3)C(=O)N[C@@H](Cc3ccccc3)C(=O)N3CCC[C@H]3C(=O)N[C@@H]3CSSC[C@@H](C(=O)N[C@@H](Cc4ccccc4)C(=O)N[C@@H](CO)C(=O)O)NC(=O)[C@H](Cc4ccccc4)NC(=O)[C@H](CCC(N)=O)NC3=O)cc21 [Compound 2T, Tam-YFP(cQFCFS)] (X1-YFP[dC]QFCFS-OH; disulfide 4-7)

not cleaved [4]: same stability for 24 h; t1/2 >24 h
Compound: Tam-YFP(c(CH2)QFAFC)

half-life [3]: > 24 h
Compound: C[C@@H]1NC(=O)[C@H](Cc2ccccc2)NC(=O)[C@H](CCC(N)=O)NC(=O)[C@H](NC(=O)[C@@H]2CCCN2C(=O)[C@H](Cc2ccccc2)NC(=O)[C@H](Cc2ccc(O)cc2)NC(=O)c2ccc3c(c2)C2(OC3=O)c3ccc(N(C)C)cc3Oc3cc(N(C)C)ccc32)CSCSC[C@@H](C(=O)O)NC(=O)[C@H](Cc2ccccc2)NC1=O [Compound 5T, Tam-YFP(c(CH2)QFAFC)] (X1-YFP[dC]QFAFC-OH; linker 4-9 via CH2)

EC50 [1, 10]: 37 nM
EC50 ([1]; pEC50 ± SEM, Ca^2+ flux): 37.2 nM
Compound: C[C@@H]1NC(=O)[C@H](Cc2ccccc2)NC(=O)[C@H](CCC(N)=O)NC(=O)[C@H](NC(=O)[C@@H]2CCCN2C(=O)[C@H](Cc2ccccc2)NC(=O)[C@@H](N)Cc2ccc(O)cc2)CSCSCC[C@@H](C(=O)O)NC(=O)[C@H](Cc2ccccc2)NC1=O [Compound 6, YFP(c(CH2)QFAFX)] (H-YFP[dC]QFAF[hCys]-OH; linker 4-9 via CH2)

half-life [3]: 0.3 h
Compound: CN(C)c1ccc2c(c1)Oc1cc(N(C)C)ccc1C21OC(=O)c2ccc(C(=O)N[C@@H](Cc3ccc(O)cc3)C(=O)N[C@@H](Cc3ccccc3)C(=O)N3CCC[C@H]3C(=O)N[C@@H]3CSCSC[C@@H](C(=O)N[C@@H](Cc4ccccc4)C(=O)N[C@@H](CO)C(=O)O)NC(=O)[C@H](Cc4ccccc4)NC(=O)[C@H](CCC(N)=O)NC3=O)cc21 [Compound 3T, Tam-YFP(c(CH2)QFCFS)] (X1-YFP[dC]QFCFS-OH; linker 4-7 via CH2)

From article PMC8345219 (Cancers, 2021)
